The nature of the assay: Treatment of non-healing dog bite wounds in a patient (Example 1). It counts as in vivo, human. The settings on record: course of antibiotics (a cephalosporin and flagyl) and daily dressing changes; after five weeks. The procedure: A patient presented with six non-healing dog bite wounds, one on their forearm, and the rest on their lower extremeties. Their wounds were treated with a course of antibiotics (a cephalosporin and flagyl) and daily dressing changes. […] Further treatment with hyperbaric oxygen was being contemplated.
Approximately one tablespoon of povidone powder was sprinkled over the patient's wounds. Within four days, wounds had completely healed.

With `Cc1ncc([N+](=O)[O-])n1CCO` [flagyl], the “wound healing outcome of prior treatment” value is “remained unhealed”.

Values taken from patent US20100104614A1, “PROVIDONE COMPOSITIONS FOR WOUND HEALING” (priority 2008, published 2010).
